Measurements reported in patent US7138361B2, “Herbicidal heterocycles” (E. I. du Pont de Nemours and Company, priority 2000, dated 2006).

Assays:
Format in all cases: in vivo
[1] = system: giant foxtail (Setaria faberii); experiment: Test B preemergence
Description: (§1) Seeds selected from barnyardgrass (Echinochloa crus-galli), Surinam grass (Brachiaria decumbens), cocklebur (Xanthium strumarium), corn (Zea mays), crabgrass (Digitaria sanguinalis), giant foxtail (Setaria faberii), lambsquarters (Chenopodium album), morning glory (Ipomoea hederacea), pigweed (Amaranthus retroflexus), rice (Oryza saliva) and velvetleaf (Abutilon theophrasti) were planted and treated preemergence with test chemicals formulated in a non-phytotoxic solvent mixture which included a surfactant.
(§2) At the same time, plants selected from these crop and weed species and also blackgrass (Alopecurus myosuroides), wheat (Triticum aestivum) and wild oat (Avena fatua) were treated with postemergence applications of test chemicals formulated in the same manner. Plants ranged in height from 2 to 18 cm (1- to 4-leaf stage) for postemergence treatments. Plant species in the flooded paddy test consisted of rice (Oryza saliva), smallflower flatsedge (Cyperus difformis), duck salad (Heteranthera limosa) and barnyardgrass (Echinochloa crus-galli) grown to the 2-leaf stage for testing. Treated plants and controls were maintained in a greenhouse for 13 to 15 days, after which time all species were compared to controls and visually evaluated. Plant response ratings, summarized in Table B, are based on a scale of 0 to 100 where 0 is no effect and 100 is complete control. A dash (-) response means no test result.

[2] = system: pigweed (Amaranthus retroflexus); experiment: Test B preemergence
Description: as §1, §2

[3] = system: cocklebur (Xanthium strumarium); experiment: Test B preemergence
Description: as §1, §2

[4] = system: barnyardgrass (Echinochloa crus-galli); experiment: Test B preemergence
Description: as §1, §2

rice (Oryza saliva) [5] = experiment: Test B preemergence
Description: as §1, §2

corn (Zea mays) [6] = experiment: Test B preemergence
Description: as §1, §2

[7] = system: crabgrass (Digitaria sanguinalis); experiment: Test B preemergence
Description: as §1, §2

[8] = system: morning glory (Ipomoea hederacea); experiment: Test B preemergence
Description: as §1, §2

[9] = system: velvetleaf (Abutilon theophrasti); experiment: Test B preemergence
Description: as §1, §2

[10] = system: lambsquarters (Chenopodium album); experiment: Test B preemergence
Description: as §1, §2

[11] = system: Surinam grass (Brachiaria decumbens); experiment: Test B preemergence
Description: as §1, §2

[12] = system: duck salad (Heteranthera limosa); experiment: Test C flooded paddy test; conditions: for Ducksalad plant response rating: Flooded Paddy, scale 0 to 100, 0 no effect, 100 complete control; for Plant response rating, Ducksalad: flooded paddy test, scale 0 to 100 (0 no effect, 100 complete control)
Procedure: (§3) At the same time, plants selected from these crop and weed species and also winter barley (Hordeum vulgare), blackgrass (Alopecurus myosuroides), canary grass (Phalaris minor), chickweed (Stellaria media), downy brome (Bromus tectorum), green foxtail (Setaria viridis), Italian ryegrass (Lolium multiflorum), wheat (Triticum aestivum), wild oat (Avena fatua) and windgrass (Apera spica-venti) were treated with postemergence applications of some of the test chemicals formulated in the same manner. Plants ranged in height from 2 to 18 cm (1- to 4-leaf stage) for postemergence treatments. Plant species in the flooded paddy test consisted of rice (Oryza saliva), smallflower flatsedge (Cyperus difformis), duck salad (Heteranthera limosa) and barnyardgrass (Echinochloa crus-galli) grown to the 2-leaf stage for testing. Treated plants and controls were maintained in a greenhouse for 12 to 14 days, after which time all species were compared to controls and visually evaluated. Plant response ratings, summarized in Table C, are based on a scale of 0 to 100 where 0 is no effect and 100 is complete control. A dash (-) response means no test result.

[13] = system: barnyardgrass (Echinochloa crus-galli); experiment: Test C flooded paddy test; conditions: for Barnyardgrass plant response rating: Flooded Paddy, scale 0 to 100, 0 no effect, 100 complete control; for Plant response rating, Barnyardgrass: flooded paddy test, scale 0 to 100 (0 no effect, 100 complete control)
Procedure: as §3

rice (Oryza saliva) [14] = experiment: Test C flooded paddy test; conditions: for Rice plant response rating: Flooded Paddy, scale 0 to 100, 0 no effect, 100 complete control; for Plant response rating, Rice: flooded paddy test, scale 0 to 100 (0 no effect, 100 complete control)
Procedure: as §3

[15] = system: smallflower flatsedge (Cyperus difformis); experiment: Test C flooded paddy test; conditions: for Flatsedge plant response rating: Flooded Paddy, scale 0 to 100, 0 no effect, 100 complete control; for Plant response rating, Flatsedge: flooded paddy test, scale 0 to 100 (0 no effect, 100 complete control)
Procedure: as §3

[16] = system: giant foxtail (Setaria faberii); experiment: Test B postemergence; conditions: 13 to 15 days
Description: as §1, §2

[17] = system: pigweed (Amaranthus retroflexus); experiment: Test B postemergence; conditions: 13 to 15 days
Description: as §1, §2

[18] = system: cocklebur (Xanthium strumarium); experiment: Test B postemergence; conditions: 13 to 15 days
Description: as §1, §2

[19] = system: barnyardgrass (Echinochloa crus-galli); experiment: Test B postemergence; conditions: 13 to 15 days
Description: as §1, §2

[20] = system: wheat (Triticum aestivum); experiment: Test B postemergence; conditions: 13 to 15 days
Description: as §1, §2

corn (Zea mays) [21] = experiment: Test B postemergence; conditions: 13 to 15 days
Description: as §1, §2

[22] = system: crabgrass (Digitaria sanguinalis); experiment: Test B postemergence; conditions: 13 to 15 days
Description: as §1, §2

[23] = system: morning glory (Ipomoea hederacea); experiment: Test B postemergence; conditions: 13 to 15 days
Description: as §1, §2

[24] = system: velvetleaf (Abutilon theophrasti); experiment: Test B postemergence; conditions: 13 to 15 days
Description: as §1, §2

[25] = system: blackgrass (Alopecurus myosuroides); experiment: Test B postemergence; conditions: 13 to 15 days
Description: as §1, §2

[26] = system: lambsquarters (Chenopodium album); experiment: Test B postemergence; conditions: 13 to 15 days
Description: as §1, §2

wild oat (Avena fatua) = experiment: Test B postemergence; conditions: 13 to 15 days
Description: as §1, §2

[27] = system: Surinam grass (Brachiaria decumbens); experiment: Test B postemergence; conditions: 13 to 15 days
Description: as §1, §2

[28] = Preemergence, Rate 500 g/ha, scale 0 to 100, 0 no effect, 100 complete control
[29] = preemergence, Rate 125 g/ha, scale of 0 to 100 where 0 is no effect and 100 is complete control, 13 to 15 days
[30] = Rate 125 g/ha, scale 0 (no effect) to 100 (complete control)
[31] = Rate 500 g/ha, scale 0 to 100, 0 is no effect, 100 is complete control

SMILES: Cc1c(F)cc(N2CCC(n3ccc(C(C)(C)C)n3)C2=O)cc1Br (stereo not shown) [Compound 78]
- Plant response rating, Foxtail, Giant [1, 28]: 10
- Plant response rating, Foxtail, Giant [1, 29]: 0
- Plant response rating, Pigweed [2, 28]: 100
- Plant response rating, Pigweed [2, 29]: 80
- Plant response rating, Cocklebur [3, 28]: 0
- Plant response rating, Cocklebur [3, 29]: 0
- Plant response rating, Barnyardgrass [4, 28]: 90
- Plant response rating, Barnyardgrass [4, 29]: 0
- Plant response rating, Rice (rice (Oryza saliva) [5]; [28]): 0
- Plant response rating, Rice (rice (Oryza saliva) [5]; [29]): 0
- Plant response rating, Corn (corn (Zea mays) [6]; [28]): 0
- Plant response rating, Corn (corn (Zea mays) [6]; [29]): 0
- Plant response rating, Crabgrass [7, 28]: 30
- Plant response rating, Crabgrass [7, 29]: 0
- Plant response rating, Morningglory [8, 28]: 0
- Plant response rating, Morningglory [8, 29]: 0
- Plant response rating, Velvetleaf [9, 28]: 0
- Plant response rating, Velvetleaf [9, 29]: 0
- Plant response rating, Lambsquarters [10, 28]: 100
- Plant response rating, Lambsquarters [10, 29]: 100
- Plant response rating, Surinam grass [11, 28]: 0
- Plant response rating, Surinam grass [11, 29]: 0
- Ducksalad plant response rating ([12]; Rate 250 g/ha): 0
- Ducksalad plant response rating ([12]; Rate 500 g/ha): 0
- Plant response rating, Ducksalad ([12]; Rate 62 g/ha): 0
- Plant response rating, Ducksalad ([12]; Rate 125 g/ha): 0
- Barnyardgrass plant response rating ([13]; Rate 250 g/ha): 0
- Barnyardgrass plant response rating ([13]; Rate 500 g/ha): 60
- Plant response rating, Barnyardgrass ([13]; Rate 62 g/ha): 0
- Plant response rating, Barnyardgrass ([13]; Rate 125 g/ha): 0
- Rice plant response rating (rice (Oryza saliva) [14]; Rate 250 g/ha): 0
- Rice plant response rating (rice (Oryza saliva) [14]; Rate 500 g/ha): 0
- Plant response rating, Rice (rice (Oryza saliva) [14]; Rate 62 g/ha): 0
- Plant response rating, Rice (rice (Oryza saliva) [14]; Rate 125 g/ha): 0
- Flatsedge plant response rating ([15]; Rate 250 g/ha): 0
- Flatsedge plant response rating ([15]; Rate 500 g/ha): 90
- Plant response rating, Flatsedge ([15]; Rate 62 g/ha): 0
- Plant response rating, Flatsedge ([15]; Rate 125 g/ha): 0
- Plant response rating, Foxtail, Giant [16, 30]: 0
- Plant response rating, Foxtail, Giant [16, 31]: 0
- Plant response rating, Pigweed [17, 30]: 70
- Plant response rating, Pigweed [17, 31]: 80
- Plant response rating, Cocklebur [18, 30]: 0
- Plant response rating, Cocklebur [18, 31]: 20
- Plant response rating, Barnyardgrass [19, 30]: 0
- Plant response rating, Barnyardgrass [19, 31]: 0
- Plant response rating, Wheat [20, 30]: 0
- Plant response rating, Wheat [20, 31]: 0
- Plant response rating, Corn (corn (Zea mays) [21]; [30]): 0
- Plant response rating, Corn (corn (Zea mays) [21]; [31]): 0
- Plant response rating, Crabgrass [22, 30]: 0
- Plant response rating, Crabgrass [22, 31]: 0
- Plant response rating, Morningglory [23, 30]: 0
- Plant response rating, Morningglory [23, 31]: 0
- Plant response rating, Velvetleaf [24, 30]: 0
- Plant response rating, Velvetleaf [24, 31]: 0
- Plant response rating, Blackgrass [25, 30]: 0
- Plant response rating, Blackgrass [25, 31]: 0
- Plant response rating, Lambsquarters [26, 30]: 0
- Plant response rating, Lambsquarters [26, 31]: 10
- Plant response rating, Wild Oat (wild oat (Avena fatua); [30]): 0
- Plant response rating, Wild Oat (wild oat (Avena fatua); [31]): 0
- Plant response rating, Surinam grass [27, 30]: 0
- Plant response rating, Surinam grass [27, 31]: 0
